This note sets out measurements from patent US20220306585A1, “PYRAZOLE DERIVATIVES FOR CONTROLLING ARTHROPODS” (Bayer Animal Health GmbH, priority 2019, published 2022).

Data set [1] in a line: Measurement of stability of prodrugs in buffer at pH 7.4. The format is physicochemical. Particulars: PBS buffer pH 7.4, 37° C., HPLC peak area, read-out: % Recovery after 24 h (stability at pH 7.4). On the procedure: Preparation of the PBS buffer solution pH 7.4: 90 g sodium chloride, 13.61 g potassium dihydrogen phosphate, 83.35 g 1M aqueous sodium hydroxide were dissolved in water. More water was added up to a total volume of 1 L. This solution was diluted 1:10 with water. Eventually, pH was adjusted to pH 7.4 by the addition of phosphoric acid.
Measurement of Stability of Prodrugs in Buffer at pH 7.4
0.15 mg of the test compound were dissolved in 0.1 mL dimethylsulfoxide and 0.4 mL acetonitrile. For complete dissolution, the HPLC vial with the sample solution was shaken and treated with ultrasound. Then, 1.0 mL of PBS buffer solution pH 7.4 was added and the sample was vortexed. The sample solution was analysed by HPLC (method 8) to determine the amount of the test compound at a particular time over a period of 24 h at 37° C. The peak areas, given as percentage of total area, are used for quantification. In addition, the reaction mixture was analysed by method 9 (HPLC-MS) at the final timepoint.

The subject of data set [2] is Dermacentor variabilis nymph. Briefly: Antiparasitic activity after administration to rats: ticks. It counts as in vivo. Particulars: for tick efficacy on rats compared with parent drug: sc, versus parent drug also injected subcutaneously. The procedure: (§1) Measurement of the Antiparasitic Activity after Administration of a Prodrug to Rats Compounds were dissolved in the appropriate volume of glycerol formal (p.a.) just before application to the animals (dose volume was adjusted to 0.03 mL/kg bodyweight). 5 rats per group were either injected intraperitoneally or subcutaneously. Rats were infested with 30 Dermacentor variabilis nymphs on study days −2, 7, 14, 21, 28, 35 and 30 adult Ctenocephalides fleas on study days −1, 8, 15, 22, 29, 36. Parasite counts were performed on study days 2, 9, 16, 23, 30, 37. Percent efficacy was calculated as arithmetic mean parasite numbers as life attached tick numbers and live flea numbers of the respective study group in comparison to parasite counts on a placebo-treated control group. Infestation of groups with less than 75% efficacy on two consecutive counting occasions will terminated for the respective parasite.

Data set [3] concerns Ctenocephalides felis adult. Briefly: Antiparasitic activity after administration to rats: fleas. It counts as in vivo. Conditions: for flea efficacy on rats compared with parent drug: sc, versus parent drug also injected subcutaneously. The procedure: as §1
The nature of data set [4]: Degradation of prodrugs and release of parent drug in rat plasma. It counts as in vitro ADME. Particulars: male, Hannover-Janvier RjHan, rat plasma (Li-heparin), 37° C., percent area of prodrug at t0. The procedure:
Measurement of Release of Parent Drug in Rat Plasma 1 mg of the test compound was dissolved in 0.5 mL acetonitrile/dimethylsulfoxide 9:1. For complete dissolution the HPLC vial was shaken and treated with ultrasound. 20 μL of this solution were added to 1 mL of rat plasma (Li-heparin plasma, Hannover-Janvier rat, RjHan male) with vortexing at a temperature of 37° C. Aliquots (100 μL each) were taken at 0.17, 0.5, 1, 1.5, 2 and 4 hours. Each aliquot was transferred to a vial containing 300 μL of acetonitrile/citric acid buffer pH 3 8:2. These solutions were centrifuged at 5000 rpm for 10 minutes. The supernatant was analysed by HPLC (Method 8) to determine the amount of the test compound. In addition, the reaction mixture was analysed by method 9 (HPLC-MS) at the final timepoint. Both decrease of the prodrug concentration and increase of parent drug concentration were monitored. All data is given as percent area of the prodrug at to.

A short description of data set [5]: Measurement of solubility in buffer at pH 6.5. It counts as physicochemical. Conditions: aqueous buffer, kinetic from dmso stock; PBS buffer pH 6.5, shaken 24 h at rt, LC-MSMS; read-out: Solubility of example compounds at pH 6.5. The procedure: Measurement of Solubility in Buffer at pH 6.5 2-4 mg of the test compound are dissolved in DMSO to reach a concentration of 50 g/L (solution A). To 10 μL of this solution 960 μL PBS buffer pH 6.5 are added (final concentration: […]); the mixture is shaken for 24 h at rt in a 96 well plate. An aliquot is centrifuged at 42000 rpm für 30 min. The supernatant is diluted with acetonitrile/water (8:2) 1:10 and 1:1000 resp. This diluted samples are analyzed by LC-MSMS. Calibration: 10 μL of solution A are diluted with 823 μL DMSO (final concentration: 600 μg/mL), which is further diluted with acetonitrile/water 8:2 by a factor of 100 (provides solution B). The calibration curve is obtained from solution B by further diluting with acetonitrile/water 8:2 with target concentrations of 1.2-12-60-600 ng/mL and injecting these four solutions for MS measurement. PBS-Puffer: 6.18 g sodium chloride and 3.96 g sodium dihydrogen phosphate are dissolved in 1 L aqua dist., the pH is adjusted to 6.5 with IN sodium hydroxide.

One may read the solubility as the dissolved amount per volume that the medium holds.

Structures are written as SMILES. Values after ≈ are worked out from the molar mass of the structure shown.

As for `Cn1nc(C(F)(F)C(F)(F)F)c(C(F)(F)F)c1-n1cc(-c2ccc(Cl)c(C(=O)N(COC(=O)C3CC3C(=O)O)C3(C#N)CC3)c2)cn1` (stereo not drawn) [Example 1, 2-({[{2-Chloro-5-[2′-methyl-5′-(pentafluoroethyl)-4′-(trifluoromethyl)-2′H-[1,3′-bipyrazol]-4-yl]benzoyl}(1-cyanocyclopropyl)amino]methoxy}carbonyl)cyclopropane-1-carboxylic acid], in data set [1], the recovery at 24 h, 0.1 mg/mL came out at 100%. In addition, in data set [2], the “tick efficacy on rats compared with parent drug” value was “superior”. In data set [3], the “flea efficacy on rats compared with parent drug” value was “superior”. Also, in data set [4], the recovery at 0.17 h, 39 µg/mL is 93%; the recovery at 0.5 h, 39 µg/mL stood at 88%; the recovery at 1 h, 39 µg/mL was determined as 80%; the recovery at 1.5 h, 39 µg/mL was determined as 74%. For the same compound, in data set [4], the recovery at 2 h, 39 µg/mL was 66% and the recovery at 4 h, 39 µg/mL is 49%. In addition, the solubility at 24 h in data set [5] was determined as 331 µg/mL (≈ 476 µM).
As for `N#CC1(N(COC(=O)c2ccc(C(=O)O)cc2)C(=O)c2cc(-c3cnn(-c4c(Cl)cc(C(F)(C(F)(F)F)C(F)(F)F)cc4OC(F)(F)F)c3)ccc2Cl)CC1` [Example 3, 4-({[(2-Chloro-5-{1-[2-chloro-4-(1,1,1,2,3,3,3-heptafluoropropan-2-yl)-6-(trifluoromethoxy)phenyl]-1H-pyrazol-4-yl}benzoyl)(1-cyanocyclopropyl)amino]methoxy}carbonyl)benzoic acid], the recovery at 24 h, 0.1 mg/mL in data set [1] was determined as 99%. In addition, the “In-vivo Efficacy SD2” value is 99% in data set [2] (12.74 mg/kg sc, Dermacentor variabilis nymph, study day 2) and 100% in data set [3] (12.74 mg/kg sc, Ctenocephalides felis adult, study day 2). The “In-vivo Efficacy SD9” value in data set [2] (12.74 mg/kg sc, Dermacentor variabilis nymph, study day 9) is recorded as 98%; in data set [3] (12.74 mg/kg sc, Ctenocephalides felis adult, study day 9), 100%. Moreover, the “In-vivo Efficacy SD16” value in data set [2] (12.74 mg/kg sc, Dermacentor variabilis nymph, study day 16) amounted to 93%; in data set [3] (12.74 mg/kg sc, Ctenocephalides felis adult, study day 16) it was 100%. Further, the “In-vivo Efficacy SD23” value was 96% in data set [2] (12.74 mg/kg sc, Dermacentor variabilis nymph, study day 23) and 96% in data set [3] (12.74 mg/kg sc, Ctenocephalides felis adult, study day 23). Further, the “In-vivo Efficacy SD30” value was 85% in data set [2] (12.74 mg/kg sc, Dermacentor variabilis nymph, study day 30) and 80% in data set [3] (12.74 mg/kg sc, Ctenocephalides felis adult, study day 30). For the same compound, the “In-vivo Efficacy SD37” value was found to be 48% in data set [2] (12.74 mg/kg sc, Dermacentor variabilis nymph, study day 37) and 55% in data set [3] (12.74 mg/kg sc, Ctenocephalides felis adult, study day 37). Moreover, the recovery at 0.17 h, 39 µg/mL in data set [4] was found to be 100%. Moreover, in data set [4], the recovery at 0.5 h, 39 µg/mL came out at 100%. In addition, the recovery at 1 h, 39 µg/mL in data set [4] stood at 100%. Moreover, the recovery at 1.5 h, 39 µg/mL in data set [4] was 100%. Moreover, the recovery at 2 h, 39 µg/mL in data set [4] is 100%. Moreover, in data set [4], the recovery at 4 h, 39 µg/mL was found to be 100%. The solubility at 24 h in data set [5] is 3 µg/mL (≈ 3.63 µM).
For `Cn1nc(C(F)(F)C(F)(F)F)c(C(F)(F)F)c1-n1cc(-c2ccc(Cl)c(C(=O)N(COC(=O)CCCC(=O)O)C3(C#N)CC3)c2)cn1` [Example 4, 5-{[{2-Chloro-5-[2′-methyl-5′-(pentafluoroethyl)-4′-(trifluoromethyl)-2′H-[1,3′-bipyrazol]-4-yl]benzoyl}(1-cyanocyclopropyl)amino]methoxy}-5-oxopentanoic acid], in data set [1], the recovery at 24 h, 0.1 mg/mL stood at 100%. Moreover, the “tick efficacy on rats compared with parent drug” value in data set [2] is “superior”. The “flea efficacy on rats compared with parent drug” value in data set [3] is given as “superior”. In data set [4], the recovery at 0.17 h, 39 µg/mL is 73%; the recovery at 0.5 h, 39 µg/mL was 42%; the recovery at 1 h, 39 µg/mL was 18%; the recovery at 1.5 h, 39 µg/mL stood at 9%. Also, in data set [4], the recovery at 2 h, 39 µg/mL amounted to 0% and the recovery at 4 h, 39 µg/mL was determined as 0%. Moreover, the solubility at 24 h in data set [5] is 179 µg/mL (≈ 257 µM).
In the case of `Cn1nc(C(F)(F)C(F)(F)F)c(C(F)(F)F)c1-n1cc(-c2ccc(Cl)c(C(=O)N(COC(=O)[C@H]3CC[C@H](C(=O)O)CC3)C3(C#N)CC3)c2)cn1` [Example 12, (trans)-4-({[{2-Chloro-5-[2′-methyl-5′-(pentafluoroethyl)-4′-(trifluoromethyl)-2′H-[1,3′-bipyrazol]-4-yl]benzoyl}(1-cyanocyclopropyl)amino]methoxy}carbonyl)cyclohexane-1-carboxylic acid], the recovery at 24 h, 0.1 mg/mL in data set [1] came to 100%. Also, in data set [4], the recovery at 0.17 h, 39 µg/mL stood at 91%; the recovery at 0.5 h, 39 µg/mL was 70%; the recovery at 1 h, 39 µg/mL is 49%; the recovery at 1.5 h, 39 µg/mL stood at 33%. In addition, in data set [4], the recovery at 2 h, 39 µg/mL was found to be 22% and the recovery at 4 h, 39 µg/mL amounted to 0%. In addition, the solubility at 24 h in data set [5] stood at 46 µg/mL (≈ 62.4 µM).
